In brackets after ≈: the same amount, converted by molar mass. Entries after “also recorded” stand apart in the source; their conditions may differ. Like-named read-outs stand apart in the source and are kept apart here.
Columns and labels:
S. epidermidis UC-20207 [1] = experiment: Determination of minimum inhibitory concentration (microdilution); assay type: cell-based; settings: Staphylococcus epidermidis, UC20207; S. epidermidis UC-20207; 18 h; read-out: MIC (minimum inhibitory concentration)
S. epidermidis UC-20207 [2] = experiment: Time course adherence assay (prophylactic and delayed treatment); assay type: cell-based; settings: for inhibition at 1 µg/mL / inhibition at 2 µg/mL / inhibition at 4 µg/mL / inhibition at 80 µg/mL: Staphylococcus epidermidis, read-out: Percent inhibition of bacterial adherence relative to controls; for Mean OD550: UC-20207
Procedure: (§1) Drug effects on bacterial adherence were measured 18 hours after treatment initiation using a quantitative spectrophotometric assay.
(§2) Relative inhibition of adherence was expressed by the following equation: (OD of control well−OD of treated well/OD of control well)×100, where OD is the mean optical density of six replicate wells from two separate experiments (three replicates per experiment). Control was defined as infected, drug-free cultures.
(§3) The primary efficacy variable in this study was the measurement of adherent bacteria to polystyrene surfaces after 18 hours to 24 hours of growth. To determine whether statistically significant differences existed between treatments (4×MIC, 2×MIC, MIC, and ½ MIC) compared with the infected-nontreated controls, multiple comparisons according to Dunnett's test (Montgomery, Design and Analysis of Experiments (1991)) were applied for each clinical strain. Differences were considered statistically significant when p<0.05.

S. epidermidis RP62A = experiment: as above; assay type: cell-based; settings: for inhibition at 1 µg/mL / inhibition at 2 µg/mL / inhibition at 4 µg/mL / inhibition at 8 µg/mL: Staphylococcus epidermidis, read-out: Percent inhibition of bacterial adherence relative to controls
Procedure: as §1, §2, §3

[3] = tested on: S. aureus and S. epidermidis strains; experiment: Microtiter-plate adherence assay, summary over all strains evaluated; assay type: cell-based, staphylococci
Procedure: Briefly, the inoculum was established by the direct colony suspension method using the Prompt™ Inoculation System (Becton Dickinson, Sparks, Md.). The bacteria suspension, which was equal to the turbidity of a 0.5 McFarland standard, was diluted in TSB to a concentration of 1×10^6 colony forming units per ml (CFU/mL). One hundred microliters of the cell suspension was added to flat-bottom polystyrene wells (Corning Costar, Corning, N.Y.) containing 100 μl of TSB, with and without drug. The final inoculum concentration per well was approximately 5×10^5 CFU/mL. The plates were incubated at 37° C. under static conditions in air. At 18 hours (h) post-infection, the optical density of bacterial growth was measured at a wavelength of 595 nm in a microtiter plate reader (Vmax; Molecular Devices, Sunnyvale, Calif.). […] Adherent “sessile” cells then were fixed with 3.7% (v/v) formaldehyde/2% (w/v) sodium acetate and stained with 0.1% (w/v) crystal violet. Excess stain was rinsed off with deionized water and the plates were air-dried for 4 h. The optical density of bacterial adherence was determined at a wavelength of 550 nm. Preliminary studies were performed to determine the optimal wavelengths for measuring growth turbidity and stained adherent cells (data not shown). To compensate for background absorbance, optical density readings from wells treated with sterile medium, fixative and stain as described above were averaged and then subtracted from all test and control wells. Relative inhibition of adherence or growth was expressed by the following equation: (OD of control well−OD of treated well/OD of control well)×100, where OD is the mean optical density of six replicate wells from two separate experiments (three replicates per experiment). Control was defined as infected, drug-free cultures.
The primary efficacy variable in this study was the measurement of adherent bacterial cells to polystyrene after 18 h of growth. To determine whether statistically significant differences existed between treatment groups (MIC, ½ MIC, and ¼ MIC) compared with the infected-nontreated controls, the Kruskal-Wallis one-way analysis of variance (ANOVA) was applied for each clinical strain. Statistical significance was defined as p-values ≦0.05. An asterisk (*) was placed by all test values less than or equal to the specified significance level.

[4] = 1.0 μg/ml, treatment 0 h post-infection
[5] = 1.0 μg/ml, treatment 2 h post-infection
[6] = 1.0 μg/ml, treatment 4 h post-infection
[7] = 1.0 μg/ml, treatment 6 h post-infection
[8] = 2.0 μg/ml (MIC), treatment 0 h post-infection
[9] = 2.0 μg/ml (MIC), treatment 2 h post-infection
[10] = 2.0 μg/ml (MIC), treatment 4 h post-infection
[11] = 2.0 μg/ml (MIC), treatment 6 h post-infection
[12] = 4.0 μg/ml, treatment 0 h post-infection
[13] = 4.0 μg/ml, treatment 2 h post-infection
[14] = 4.0 μg/ml, treatment 4 h post-infection
[15] = 4.0 μg/ml, treatment 6 h post-infection

SMILES: CC(=O)NC[C@H]1CN(c2ccc(N3CCOCC3)c(F)c2)C(=O)O1 [Linezolid, (S)-N-[[3-[3-fluoro-4-(4-morpholinyl)phenyl]-2-oxo-5-oxazolidinyl]methyl]acetamide]
- MIC (S. epidermidis UC-20207 [1]): 2 µg/mL (≈ 5.93 µM)
- inhibition at 1 µg/mL (S. epidermidis UC-20207 [2]; UC20207, 0 h): 96.5%
- inhibition at 2 µg/mL (S. epidermidis UC-20207 [2]; UC20207, 0 h): 99%
- inhibition at 4 µg/mL (S. epidermidis UC-20207 [2]; UC20207, 0 h): 99.6%
- inhibition at 80 µg/mL (S. epidermidis UC-20207 [2]; UC20207, 0 h): 99.8%
- inhibition at 1 µg/mL (S. epidermidis UC-20207 [2]; UC20207, 2 h): 97.5%
- inhibition at 2 µg/mL (S. epidermidis UC-20207 [2]; UC20207, 2 h): 99.8%
- inhibition at 4 µg/mL (S. epidermidis UC-20207 [2]; UC20207, 2 h): 99.7%
- inhibition at 80 µg/mL (S. epidermidis UC-20207 [2]; UC20207, 2 h): 99.6%
- inhibition at 1 µg/mL (S. epidermidis UC-20207 [2]; UC20207, 4 h): 68.4%
- inhibition at 2 µg/mL (S. epidermidis UC-20207 [2]; UC20207, 4 h): 87.8%
- inhibition at 4 µg/mL (S. epidermidis UC-20207 [2]; UC20207, 4 h): 99.2%
- inhibition at 80 µg/mL (S. epidermidis UC-20207 [2]; UC20207, 4 h): 99%
- inhibition at 1 µg/mL (S. epidermidis UC-20207 [2]; UC20207, 6 h): 0%
- inhibition at 2 µg/mL (S. epidermidis UC-20207 [2]; UC20207, 6 h): 0%
- inhibition at 4 µg/mL (S. epidermidis UC-20207 [2]; UC20207, 6 h): 41.4%
- inhibition at 80 µg/mL (S. epidermidis UC-20207 [2]; UC20207, 6 h): 75.1%
- Mean OD550 (S. epidermidis UC-20207 [2]; [4]): 0.084 ± 0.049
- Mean OD550 (S. epidermidis UC-20207 [2]; [5]): 0.064 ± 0.046
- Mean OD550 (S. epidermidis UC-20207 [2]; [6]): 0.921 ± 0.119
- Mean OD550 (S. epidermidis UC-20207 [2]; [7]): 2.757 ± 0.173
- Mean OD550 (S. epidermidis UC-20207 [2]; [8]): 0.024 ± 0.005
- Mean OD550 (S. epidermidis UC-20207 [2]; [9]): 0.004 ± 0.002
- Mean OD550 (S. epidermidis UC-20207 [2]; [10]): 0.356 ± 0.418
- Mean OD550 (S. epidermidis UC-20207 [2]; [11]): 2.938 ± 0.119
- Mean OD550 (S. epidermidis UC-20207 [2]; [12]): 0.009 ± 0.004
- Mean OD550 (S. epidermidis UC-20207 [2]; [13]): 0.007 ± 0.001
- Mean OD550 (S. epidermidis UC-20207 [2]; [14]): 0.022 ± 0.010
- Mean OD550 (S. epidermidis UC-20207 [2]; [15]): 1.558 ± 0.094
- Mean OD550 (S. epidermidis UC-20207 [2]; linezolid 80 μg/ml, treatment 0 h post-infection): 0.005 ± 0.002
- Mean OD550 (S. epidermidis UC-20207 [2]; linezolid 80 μg/ml, treatment 2 h post-infection): 0.009 ± 0.003
- Mean OD550 (S. epidermidis UC-20207 [2]; linezolid 80 μg/ml, treatment 4 h post-infection): 0.028 ± 0.020
- Mean OD550 (S. epidermidis UC-20207 [2]; linezolid 80 μg/ml, treatment 6 h post-infection): 0.662 ± 0.103
- Mean OD550 (S. epidermidis RP62A; [4]): 0.000 ± 0.002
- Mean OD550 (S. epidermidis RP62A; [5]): 0.000 ± 0.000
- Mean OD550 (S. epidermidis RP62A; [6]): 0.000 ± 0.001
- Mean OD550 (S. epidermidis RP62A; [7]): 0.274 ± 0.183
- Mean OD550 (S. epidermidis RP62A; [8]): 0.004 ± 0.004
- Mean OD550 (S. epidermidis RP62A; [9]): 0.001 ± 0.001
- Mean OD550 (S. epidermidis RP62A; [10]): 0.003 ± 0.005
- Mean OD550 (S. epidermidis RP62A; [11]): 0.083 ± 0.067
- Mean OD550 (S. epidermidis RP62A; [12]): 0.002 ± 0.002
- Mean OD550 (S. epidermidis RP62A; [13]): 0.003 ± 0.002
- Mean OD550 (S. epidermidis RP62A; [14]): 0.002 ± 0.004
- Mean OD550 (S. epidermidis RP62A; [15]): 0.082 ± 0.051
- Mean OD550 (S. epidermidis RP62A; 8.0 μg/ml, treatment 0 h post-infection): 0.002 ± 0.002
- Mean OD550 (S. epidermidis RP62A; 8.0 μg/ml, treatment 2 h post-infection): 0.003 ± 0.001
- Mean OD550 (S. epidermidis RP62A; 8.0 μg/ml, treatment 4 h post-infection): 0.000 ± 0.001
- Mean OD550 (S. epidermidis RP62A; 8.0 μg/ml, treatment 6 h post-infection): 0.021 ± 0.010
- inhibition at 1 µg/mL (S. epidermidis RP62A; 0 h): 100%
- inhibition at 2 µg/mL (S. epidermidis RP62A; 0 h): 99.8%
- inhibition at 4 µg/mL (S. epidermidis RP62A; 0 h): 99.9%
- inhibition at 8 µg/mL (S. epidermidis RP62A; 0 h): 99.9%
- inhibition at 1 µg/mL (S. epidermidis RP62A; 2 h): 100%
- inhibition at 2 µg/mL (S. epidermidis RP62A; 2 h): 99.9%
- inhibition at 4 µg/mL (S. epidermidis RP62A; 2 h): 99.9%
- inhibition at 8 µg/mL (S. epidermidis RP62A; 2 h): 99.8%
- inhibition at 1 µg/mL (S. epidermidis RP62A; 4 h): 100%
- inhibition at 2 µg/mL (S. epidermidis RP62A; 4 h): 99.8%
- inhibition at 4 µg/mL (S. epidermidis RP62A; 4 h): 99.8%
- inhibition at 8 µg/mL (S. epidermidis RP62A; 4 h): 100%
- inhibition at 1 µg/mL (S. epidermidis RP62A; 6 h): 78.4%
- inhibition at 2 µg/mL (S. epidermidis RP62A; 6 h): 93.4%
- inhibition at 4 µg/mL (S. epidermidis RP62A; 6 h): 93.5%
- inhibition at 8 µg/mL (S. epidermidis RP62A; 6 h): 98.4%
- effect on bacterial adhesion at subinhibitory concentrations ([3]; concentrations less than the MIC, as low as one-fourth the MIC, five strains): surprisingly effective at preventing bacterial adhesion; also recorded: significant inhibitory effects on cell adhesion in all strains evaluated
- preventing adherence to polystyrene ([3]; one-fourth the MIC, five strains): effective in preventing adherence at one-fourth the MIC in all but one strain
- percent inhibition of adherence relative to control ([3]; one-half the MIC, all strains evaluated): greater than or equal to 99.0%
